From article PMC6272448, “Synthesis, ^18F-Radiolabelling and Biological Characterization of Novel Fluoroalkylated Triazine Derivatives for in Vivo Imaging of Phosphodiesterase 2A in Brain via Positron Emission Tomography” (Molecules, 2015) come the findings set out here.

This test has as its target T1, PDE2A (Rattus norvegicus, UniProt Q01062).
T1 construct: from tissue; host or cells: sagittal brain sections of female SPRD rats
T1 sequence (Q01062 1-928): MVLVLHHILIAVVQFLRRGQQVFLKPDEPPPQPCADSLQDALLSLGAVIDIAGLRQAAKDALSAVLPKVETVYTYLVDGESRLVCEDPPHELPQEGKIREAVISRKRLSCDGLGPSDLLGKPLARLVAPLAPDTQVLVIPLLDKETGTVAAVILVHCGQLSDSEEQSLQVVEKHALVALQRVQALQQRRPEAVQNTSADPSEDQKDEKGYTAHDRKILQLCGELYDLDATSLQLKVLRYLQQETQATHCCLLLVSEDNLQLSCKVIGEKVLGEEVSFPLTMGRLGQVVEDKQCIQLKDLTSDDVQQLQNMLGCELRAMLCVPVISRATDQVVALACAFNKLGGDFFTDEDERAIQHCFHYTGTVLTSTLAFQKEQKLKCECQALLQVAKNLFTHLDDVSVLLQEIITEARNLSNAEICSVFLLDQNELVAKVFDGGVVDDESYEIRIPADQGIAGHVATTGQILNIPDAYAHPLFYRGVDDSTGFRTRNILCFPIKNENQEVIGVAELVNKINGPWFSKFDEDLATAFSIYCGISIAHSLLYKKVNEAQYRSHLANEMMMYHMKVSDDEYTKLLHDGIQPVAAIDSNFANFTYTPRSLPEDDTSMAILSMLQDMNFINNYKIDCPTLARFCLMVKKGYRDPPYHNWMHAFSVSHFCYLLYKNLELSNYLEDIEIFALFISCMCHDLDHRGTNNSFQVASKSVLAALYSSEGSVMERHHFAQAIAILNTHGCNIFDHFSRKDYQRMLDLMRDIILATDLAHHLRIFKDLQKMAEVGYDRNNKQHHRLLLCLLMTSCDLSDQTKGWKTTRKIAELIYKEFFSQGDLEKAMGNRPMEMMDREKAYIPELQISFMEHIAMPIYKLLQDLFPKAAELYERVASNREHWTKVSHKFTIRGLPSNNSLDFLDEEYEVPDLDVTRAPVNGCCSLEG
The test can be described thus: in vitro autoradiography on sagittal rat brain sections. In kind it is binding. As to conditions: sagittal rat brain slices, ~1 MBq/mL, 60 min incubation. The procedure: In vitro autoradiographic studies were accomplished by incubating sagittal sections of rat brain with [^18F]TA3 or [^18F]TA4. […] The images shown in Figure 6 indicate region-specific accumulation of both radioligands [^18F]TA3 and [^18F]TA4, which is consistent with the distribution pattern of PDE2A protein in rat brain [9, 11]. Therefore, we assume that the novel radioligands might be appropriate for in vitro imaging of PDE2A.
Frozen sagittal brain sections obtained from female SPRD rats (10–12 weeks old) were thawed, dried in a stream of cold air, and preincubated for 20 min with incubation buffer (50 mM TRIS-HCl, pH 7.4, 120 mM NaCl, 5 mM KCl, 2 mM CaCl2, 5 mM MgCl2) at ambient temperature. Brain sections were incubated with ~1 MBq/mL of [^18F]TA3 or [^18F]TA4 in incubation buffer for 60 min at ambient temperature. Afterwards sections were washed twice with 50 mM TRIS-HCl (pH 7.4) for 2 min at 4 °C, dipped briefly in ice-cold deionized water, dried in a stream of cold air and exposed for 60 min to an ^18F-sensitive image plate that was analyzed afterwards using an image plate scanner (HD-CR 35; Duerr NDT GmbH, Bietigheim Bissingen, Germany).

With `COc1ccc2nnc3c(C)nc(-c4cc(OCCC[18F])ccc4F)n3c2n1` [[^18F]TA3], the “regional binding in autoradiography” value is “higher binding densities in cortex and striatum than in cerebellum”.
As for `COc1ccc2nnc3c(C)nc(-c4cc(OCCCC[18F])ccc4F)n3c2n1` [[^18F]TA4], the entry is “also binds to the olfactory tubercle, colliculi and partly to cerebellum”.
